Reference: US6627648B1, “Pharmaceutical compositions and methods for use” (Targacept, Inc., priority 1999, dated 2003)
pKi: −log10 of the molar value.

Experiments:
[1] = test system: ganglia-type nicotinic acetylcholine receptors; test: Determination of interaction with ganglion receptors; assay type: cell-based; settings: maximal activation as percentage of maximal activation induced by (S)-(-)-nicotine
Experimental: (§1) The determination of the interaction of the compounds with ganglionic receptors was carried out in accordance with the techniques described in U.S. Pat. No. 5,597,919 to Dull et al. The maximal activation for individual compounds (Emax) was determined as a percentage of the maximal activation induced by (S)-(−)-nicotine. Reported Emax values represent the amount released relative to (S)-(−)-nicotine on a percentage basis. […] Such preferable compounds have the capability to activate human CNS receptors without activating ganglia-type nicotinic acetylcholine receptors. Thus, there is provided a therapeutic window for utilization in the treatment of CNS disorders. […] The compounds begin to cause effects at ganglia only when employed in amounts of many times those required to activate dopamine release.

[2] = molecular target: T1, muscle-type nicotinic acetylcholine receptors (Homo sapiens, UniProt P02708+P07510+Q07001); test: Determination of interaction with muscle receptors; assay type: cell-based; settings: maximal activation as percentage of maximal activation induced by (S)-(-)-nicotine; for Emax: read-out: effect at muscle sites (Emax)
T1 construct: endogenous in cells; host or cells: TE671/RD (own knowledge of the cited US 5,597,919)
Experimental: as §1, with “muscle” for “ganglionic”, “muscle-type” for “ganglia-type”, “cause muscle” for “cause”, “effects” for “effects at ganglia”

CNS nicotinic receptors = CNS nicotinic receptors (Rattus norvegicus, UniProt P09483+P12390); test: Determination of binding to relevant receptor sites; settings: inhibition constants calculated from IC50 values by the method of Cheng et al.
Experimental: Binding of the compounds to relevant receptor sites was determined in accordance with the techniques described in U.S. Pat. No. 5,597,919 to Dull et al. Inhibition constants (Ki values), reported in nM, were calculated from the IC50 values using the method of Cheng et al., Biochem, Pharmacol. 22:3099 (1973).

T1 sequence (P02708 21-457): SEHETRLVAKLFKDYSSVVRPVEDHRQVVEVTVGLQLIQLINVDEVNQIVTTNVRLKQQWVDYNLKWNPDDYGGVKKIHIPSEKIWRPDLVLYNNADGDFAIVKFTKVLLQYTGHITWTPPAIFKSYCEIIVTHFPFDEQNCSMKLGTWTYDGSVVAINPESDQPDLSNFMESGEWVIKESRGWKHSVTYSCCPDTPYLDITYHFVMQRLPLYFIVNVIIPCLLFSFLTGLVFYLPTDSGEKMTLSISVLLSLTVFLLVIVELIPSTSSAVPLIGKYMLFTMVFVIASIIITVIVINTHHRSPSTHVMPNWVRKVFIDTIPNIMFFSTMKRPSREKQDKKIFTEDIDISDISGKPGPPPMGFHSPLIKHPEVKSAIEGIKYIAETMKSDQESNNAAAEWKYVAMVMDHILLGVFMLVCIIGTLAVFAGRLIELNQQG
T1 sequence (P11230 24-501 partner): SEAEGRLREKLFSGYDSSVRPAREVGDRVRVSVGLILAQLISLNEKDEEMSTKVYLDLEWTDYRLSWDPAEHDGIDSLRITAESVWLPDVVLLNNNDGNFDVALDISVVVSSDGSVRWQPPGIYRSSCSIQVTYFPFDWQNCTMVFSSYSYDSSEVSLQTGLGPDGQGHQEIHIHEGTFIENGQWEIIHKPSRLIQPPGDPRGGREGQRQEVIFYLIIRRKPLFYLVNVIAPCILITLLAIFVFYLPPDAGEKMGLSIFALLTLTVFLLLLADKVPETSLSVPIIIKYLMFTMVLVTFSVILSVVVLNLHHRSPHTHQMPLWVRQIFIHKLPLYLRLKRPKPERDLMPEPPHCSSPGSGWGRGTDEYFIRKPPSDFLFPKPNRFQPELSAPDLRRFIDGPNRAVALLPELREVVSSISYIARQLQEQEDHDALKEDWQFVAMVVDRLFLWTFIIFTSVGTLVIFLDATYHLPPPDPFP
T1 sequence (Q07001 22-517): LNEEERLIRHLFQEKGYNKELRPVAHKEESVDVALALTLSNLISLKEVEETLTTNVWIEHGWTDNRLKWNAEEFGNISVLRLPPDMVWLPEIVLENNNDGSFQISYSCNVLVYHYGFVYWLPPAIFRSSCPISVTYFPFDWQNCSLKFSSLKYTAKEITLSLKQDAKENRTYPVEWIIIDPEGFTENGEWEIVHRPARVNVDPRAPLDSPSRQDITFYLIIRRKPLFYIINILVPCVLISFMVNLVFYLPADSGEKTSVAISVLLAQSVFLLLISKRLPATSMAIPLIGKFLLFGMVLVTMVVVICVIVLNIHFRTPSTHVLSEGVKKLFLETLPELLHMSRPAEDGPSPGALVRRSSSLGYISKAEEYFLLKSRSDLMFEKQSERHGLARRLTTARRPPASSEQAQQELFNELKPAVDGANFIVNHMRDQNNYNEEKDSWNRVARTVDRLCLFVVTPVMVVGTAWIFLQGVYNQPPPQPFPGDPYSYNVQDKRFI
T1 sequence (P07510 23-517): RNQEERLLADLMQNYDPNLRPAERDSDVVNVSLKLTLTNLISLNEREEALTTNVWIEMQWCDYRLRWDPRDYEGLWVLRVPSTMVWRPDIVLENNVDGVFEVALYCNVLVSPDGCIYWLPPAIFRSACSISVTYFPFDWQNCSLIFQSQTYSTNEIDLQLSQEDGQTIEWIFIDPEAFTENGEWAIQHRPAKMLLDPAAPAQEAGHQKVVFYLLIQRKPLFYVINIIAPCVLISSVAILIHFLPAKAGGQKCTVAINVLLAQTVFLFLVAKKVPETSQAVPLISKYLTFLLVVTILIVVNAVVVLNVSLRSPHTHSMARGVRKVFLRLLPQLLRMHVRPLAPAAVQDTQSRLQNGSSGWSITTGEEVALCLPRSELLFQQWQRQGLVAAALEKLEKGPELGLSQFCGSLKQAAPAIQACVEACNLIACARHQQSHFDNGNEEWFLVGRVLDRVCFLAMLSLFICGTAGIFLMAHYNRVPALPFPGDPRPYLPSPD
CNS nicotinic receptors, sequence (P09483 31-630): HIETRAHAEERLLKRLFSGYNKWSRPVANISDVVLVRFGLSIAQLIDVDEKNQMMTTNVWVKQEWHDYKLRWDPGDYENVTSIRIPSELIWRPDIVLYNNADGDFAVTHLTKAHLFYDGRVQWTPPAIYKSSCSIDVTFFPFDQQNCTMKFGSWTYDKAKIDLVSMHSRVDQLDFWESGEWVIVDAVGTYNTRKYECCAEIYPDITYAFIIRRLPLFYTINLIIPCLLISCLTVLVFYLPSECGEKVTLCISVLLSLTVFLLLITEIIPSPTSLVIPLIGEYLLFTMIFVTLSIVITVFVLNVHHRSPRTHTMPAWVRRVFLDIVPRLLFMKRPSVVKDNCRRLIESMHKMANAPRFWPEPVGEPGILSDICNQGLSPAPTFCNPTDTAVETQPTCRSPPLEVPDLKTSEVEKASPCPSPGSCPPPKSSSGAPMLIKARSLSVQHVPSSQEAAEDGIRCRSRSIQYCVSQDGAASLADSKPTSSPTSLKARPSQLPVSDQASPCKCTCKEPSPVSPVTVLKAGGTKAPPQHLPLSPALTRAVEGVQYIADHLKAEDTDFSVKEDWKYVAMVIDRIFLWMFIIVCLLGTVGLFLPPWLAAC
CNS nicotinic receptors, sequence (P12390 25-500): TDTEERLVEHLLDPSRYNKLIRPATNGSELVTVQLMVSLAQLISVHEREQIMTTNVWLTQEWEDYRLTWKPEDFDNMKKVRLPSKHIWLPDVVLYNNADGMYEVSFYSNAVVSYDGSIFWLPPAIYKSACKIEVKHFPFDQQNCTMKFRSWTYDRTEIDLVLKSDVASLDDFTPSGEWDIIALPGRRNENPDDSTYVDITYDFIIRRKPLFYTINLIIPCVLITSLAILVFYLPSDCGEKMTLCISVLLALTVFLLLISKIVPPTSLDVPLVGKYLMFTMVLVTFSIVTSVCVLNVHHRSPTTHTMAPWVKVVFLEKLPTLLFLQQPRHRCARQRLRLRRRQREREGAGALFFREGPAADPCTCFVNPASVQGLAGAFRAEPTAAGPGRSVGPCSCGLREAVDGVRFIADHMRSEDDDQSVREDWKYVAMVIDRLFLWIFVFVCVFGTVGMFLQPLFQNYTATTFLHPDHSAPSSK

Row | Compound | effect at ganglia sites (Emax) [1] | effect at muscle sites (Emax) [2] | pKi (CNS nicotinic receptors) | Emax [2]
1 | 3-(3-Pyridyloxy)propylamine Hemigalactarate [Example 10] | 0% | 0% | – | –
2 | 3-(5-Chloro-3-pyridyloxy)propylamine Hemigalactarate [Example 15] | 4% | 0% | – | –
3 | 4-(3-Pyridyloxy)butylamine Hemigalactarate [Example 12] | 11% | 0% | – | –
4 | CNCCCSc1cncc(Br)c1 [Example 6, 3-(5-Bromo-3-pyridylthio))propyl)methylamine Hemigalactarate] | – | – | 4.40 | –
5 | CN(C)CCOc1cccnc1 [Example 9, Dimethyl(2-(3-pyridyloxy)ethylamine Hemigalactarate] | 0% | – | – | 0%
6 | Cl.Cl.c1cncc(OC2CCNCC2)c1 [Example 35, 3-(4-Piperidinyloxy)pyridine dihydrochloride] | 9% | – | – | 16%
7 | (3-(3-Aminophenoxy)propyl)methylamine Hemigalactarate [Example 30] | 5% | 11% | – | –
8 | (3-(5-Chloro(3-pyridyloxy))propyl)methylamine Hemigalactarate [Example 16] | 7% | 16% | – | –
9 | Cyclopropyl(3-(3-pyridyloxy)propyl)amine Hemigalactarate [Example 25] | 10% | 9% | – | –
10 | Dimethyl(3-(3-pyridyloxy)propyl)amine Hemigalactarate [Example 11] | 5% | 8% | – | –
11 | Ethyl(3-(3-pyridyloxy)propyl)amine Hemigalactarate [Example 22] | 13% | 13% | – | –
12 | Methyl(1-methyl-3-(3-pyridyloxy)propyl)amine Hemigalactarate [Example 26] | 20% | 16% | – | –
13 | Methyl(2-(3-pyridyloxy)ethyl)amine Hemigalactarate [Example 8] | 0% | 0% | – | –
14 | Methyl(3-(2-methyl(3-pyridyloxy))propyl)amine Hemigalactarate [Example 21] | 15% | 0% | – | –
15 | Methyl(3-(3-nitrophenoxy)propyl)amine Hemigalactarate [Example 28] | 9% | 10% | – | –
16 | Methyl(3-(5-(phenylmethoxy)(3-pyridyloxy))propyl)amine Hemigalactarate [Example 19] | 3% | 1% | – | –
17 | Methyl(3-(5-isopropoxy-3-pyridyloxy)propyl)amine Monogalactarate [Example 18] | 0% | 22% | – | –
18 | Methyl(3-(5-methoxy-3-pyridyloxy)propyl)amine Hemigalactarate [Example 17] | 5% | 10% | – | –
19 | Methyl(3-(6-methyl(3-pyridyloxy))propyl)amine Hemigalactarate [Example 20] | – | 0% | – | –
